Measurements reported in PMC4457528, “Identification of Novel Small Molecule Inhibitors of Oncogenic RET Kinase” (PLoS ONE, 2015).
Read-outs that look alike come from different tables or passages of the source.

Legend:
Assay in all cases: KinomeScan kinase panel, single concentration 10 µM
Type in all cases: binding
KinomeScan kinase panel [1] = target: T1, KinomeScan kinase panel (Homo sapiens, UniProt O94768); conditions: DRAK2, 10 µM; read-out: score (%)
T1 construct: purchased DiscoveRx (KinomeScan)
T1 sequence (O94768 1-372): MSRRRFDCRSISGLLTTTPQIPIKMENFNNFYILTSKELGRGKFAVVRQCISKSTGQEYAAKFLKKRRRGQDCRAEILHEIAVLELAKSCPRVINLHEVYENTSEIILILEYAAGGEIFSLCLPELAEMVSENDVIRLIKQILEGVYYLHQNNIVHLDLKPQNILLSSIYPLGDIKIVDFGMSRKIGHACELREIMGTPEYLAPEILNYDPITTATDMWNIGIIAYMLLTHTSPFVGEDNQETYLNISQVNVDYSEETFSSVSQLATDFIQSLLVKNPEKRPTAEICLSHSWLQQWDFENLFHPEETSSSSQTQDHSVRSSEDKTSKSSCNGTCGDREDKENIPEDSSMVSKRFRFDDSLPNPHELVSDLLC

KinomeScan kinase panel [2] = target: T2, KinomeScan kinase panel (Homo sapiens, UniProt O94921); conditions: PFTK1, 10 µM
T2 construct: purchased DiscoveRx (KinomeScan)

KinomeScan kinase panel [3] = target: T3, KinomeScan kinase panel (Homo sapiens, UniProt P35968); conditions: kinase VEGFR2; 10 µM; read-out: score (%)
T3 construct: purchased DiscoveRx (KinomeScan)

KinomeScan kinase panel [4] = target: T4, KinomeScan kinase panel (Homo sapiens, UniProt P51812); conditions: 10 µM, read-out: score (%)
T4 construct: purchased DiscoveRx (KinomeScan)

KinomeScan kinase panel [5] = target: T5, KinomeScan kinase panel (Homo sapiens, UniProt P54753); conditions: EPHB3, 10 µM; read-out: score (%)
T5 construct: purchased DiscoveRx (KinomeScan)
T5 sequence (P54753 34-998): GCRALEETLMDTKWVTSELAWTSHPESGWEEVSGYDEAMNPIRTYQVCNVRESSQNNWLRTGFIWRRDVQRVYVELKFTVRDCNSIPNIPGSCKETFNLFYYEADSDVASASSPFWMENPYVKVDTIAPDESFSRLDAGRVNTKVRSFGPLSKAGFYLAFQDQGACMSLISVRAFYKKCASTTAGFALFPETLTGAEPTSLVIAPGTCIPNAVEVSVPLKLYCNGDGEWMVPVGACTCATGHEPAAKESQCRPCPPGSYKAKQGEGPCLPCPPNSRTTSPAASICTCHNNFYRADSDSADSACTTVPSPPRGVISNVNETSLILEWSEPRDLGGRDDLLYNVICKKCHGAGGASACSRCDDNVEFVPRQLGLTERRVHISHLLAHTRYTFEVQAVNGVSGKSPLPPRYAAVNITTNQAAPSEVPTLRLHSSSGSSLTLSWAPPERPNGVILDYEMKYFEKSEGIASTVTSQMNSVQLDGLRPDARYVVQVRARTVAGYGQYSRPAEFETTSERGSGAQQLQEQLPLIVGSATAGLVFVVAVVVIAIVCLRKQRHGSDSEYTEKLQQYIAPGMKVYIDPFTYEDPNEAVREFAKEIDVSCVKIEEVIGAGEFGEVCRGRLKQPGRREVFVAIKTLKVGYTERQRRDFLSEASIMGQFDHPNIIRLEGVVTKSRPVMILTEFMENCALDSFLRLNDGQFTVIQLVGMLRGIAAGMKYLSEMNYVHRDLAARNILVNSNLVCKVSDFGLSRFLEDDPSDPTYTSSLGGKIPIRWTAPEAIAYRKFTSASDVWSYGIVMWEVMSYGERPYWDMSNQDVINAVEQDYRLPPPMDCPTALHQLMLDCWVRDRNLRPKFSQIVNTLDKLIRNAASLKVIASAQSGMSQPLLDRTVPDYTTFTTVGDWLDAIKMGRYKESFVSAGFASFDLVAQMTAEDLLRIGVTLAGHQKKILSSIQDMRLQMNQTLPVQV

KinomeScan kinase panel [6] = target: T6, KinomeScan kinase panel (Homo sapiens, UniProt Q8N4C8); conditions: MINK, 10 µM; read-out: score (%)
T6 construct: purchased DiscoveRx (KinomeScan)

KinomeScan kinase panel [7] = target: T7, KinomeScan kinase panel (Homo sapiens, UniProt Q9NRP7); conditions: read-out: score (%)
T7 construct: purchased DiscoveRx (KinomeScan)
T7 sequence (Q9NRP7 1-1315): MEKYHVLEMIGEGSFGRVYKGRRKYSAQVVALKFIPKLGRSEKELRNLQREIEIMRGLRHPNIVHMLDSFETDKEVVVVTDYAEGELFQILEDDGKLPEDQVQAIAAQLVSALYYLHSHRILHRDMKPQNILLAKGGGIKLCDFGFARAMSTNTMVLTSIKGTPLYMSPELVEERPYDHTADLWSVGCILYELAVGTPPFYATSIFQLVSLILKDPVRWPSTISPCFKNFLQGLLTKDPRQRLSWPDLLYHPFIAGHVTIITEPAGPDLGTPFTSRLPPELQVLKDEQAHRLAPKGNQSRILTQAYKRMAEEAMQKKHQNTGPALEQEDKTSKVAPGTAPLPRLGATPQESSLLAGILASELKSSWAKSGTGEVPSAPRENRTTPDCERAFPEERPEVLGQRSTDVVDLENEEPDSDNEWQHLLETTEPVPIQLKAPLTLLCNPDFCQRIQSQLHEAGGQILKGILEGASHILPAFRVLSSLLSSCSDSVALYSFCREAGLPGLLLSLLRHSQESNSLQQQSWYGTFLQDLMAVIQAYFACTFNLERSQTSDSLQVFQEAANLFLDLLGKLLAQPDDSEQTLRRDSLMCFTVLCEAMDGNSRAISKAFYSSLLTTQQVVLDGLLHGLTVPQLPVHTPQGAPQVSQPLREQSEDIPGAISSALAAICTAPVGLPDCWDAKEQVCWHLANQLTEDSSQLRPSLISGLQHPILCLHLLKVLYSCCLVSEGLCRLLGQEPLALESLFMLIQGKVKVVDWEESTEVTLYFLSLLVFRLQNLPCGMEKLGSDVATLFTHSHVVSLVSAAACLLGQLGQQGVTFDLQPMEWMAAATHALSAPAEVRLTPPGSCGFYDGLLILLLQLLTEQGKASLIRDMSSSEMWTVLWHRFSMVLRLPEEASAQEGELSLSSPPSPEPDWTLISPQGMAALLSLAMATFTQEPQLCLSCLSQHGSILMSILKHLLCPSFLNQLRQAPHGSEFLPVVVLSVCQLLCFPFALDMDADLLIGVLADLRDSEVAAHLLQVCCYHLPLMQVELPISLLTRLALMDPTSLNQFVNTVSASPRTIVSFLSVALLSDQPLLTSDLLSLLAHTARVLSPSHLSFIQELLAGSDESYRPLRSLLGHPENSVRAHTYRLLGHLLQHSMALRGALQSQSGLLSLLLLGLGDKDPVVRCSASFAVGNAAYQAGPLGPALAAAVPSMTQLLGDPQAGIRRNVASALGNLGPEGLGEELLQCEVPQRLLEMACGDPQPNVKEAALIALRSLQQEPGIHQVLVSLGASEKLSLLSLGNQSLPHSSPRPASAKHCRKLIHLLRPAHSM

T2 sequence (O94921 whole entry): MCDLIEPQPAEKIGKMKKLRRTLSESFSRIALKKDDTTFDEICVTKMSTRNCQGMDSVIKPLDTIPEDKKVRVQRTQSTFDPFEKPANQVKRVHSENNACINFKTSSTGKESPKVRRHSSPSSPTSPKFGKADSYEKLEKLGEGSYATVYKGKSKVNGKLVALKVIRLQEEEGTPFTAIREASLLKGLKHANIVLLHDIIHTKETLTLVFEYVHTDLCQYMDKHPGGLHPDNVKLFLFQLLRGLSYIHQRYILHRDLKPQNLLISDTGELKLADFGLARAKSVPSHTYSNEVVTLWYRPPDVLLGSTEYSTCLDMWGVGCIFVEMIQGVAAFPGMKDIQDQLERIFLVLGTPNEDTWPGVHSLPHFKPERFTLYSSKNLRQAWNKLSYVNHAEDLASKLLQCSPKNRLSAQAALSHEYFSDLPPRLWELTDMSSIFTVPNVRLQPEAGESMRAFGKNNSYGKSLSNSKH
T4 sequence (P51812 whole entry): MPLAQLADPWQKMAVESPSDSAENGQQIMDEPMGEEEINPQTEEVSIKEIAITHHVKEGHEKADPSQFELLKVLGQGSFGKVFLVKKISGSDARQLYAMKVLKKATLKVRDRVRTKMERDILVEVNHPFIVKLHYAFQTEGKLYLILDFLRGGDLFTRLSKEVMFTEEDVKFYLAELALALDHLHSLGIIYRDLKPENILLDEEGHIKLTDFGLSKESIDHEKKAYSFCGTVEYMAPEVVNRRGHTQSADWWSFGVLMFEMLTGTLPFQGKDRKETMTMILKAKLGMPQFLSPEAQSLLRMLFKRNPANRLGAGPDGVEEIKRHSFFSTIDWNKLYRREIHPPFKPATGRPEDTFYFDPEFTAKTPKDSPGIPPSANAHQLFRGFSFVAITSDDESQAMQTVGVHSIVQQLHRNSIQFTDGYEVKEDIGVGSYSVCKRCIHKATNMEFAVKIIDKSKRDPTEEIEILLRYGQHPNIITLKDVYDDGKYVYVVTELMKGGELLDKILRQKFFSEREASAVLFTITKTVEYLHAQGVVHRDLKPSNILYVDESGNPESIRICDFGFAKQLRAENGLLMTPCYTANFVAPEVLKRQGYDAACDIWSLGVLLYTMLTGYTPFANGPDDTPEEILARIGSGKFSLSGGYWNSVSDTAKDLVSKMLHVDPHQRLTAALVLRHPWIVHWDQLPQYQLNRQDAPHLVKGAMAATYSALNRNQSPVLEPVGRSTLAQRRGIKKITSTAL
T6 sequence (Q8N4C8 whole entry): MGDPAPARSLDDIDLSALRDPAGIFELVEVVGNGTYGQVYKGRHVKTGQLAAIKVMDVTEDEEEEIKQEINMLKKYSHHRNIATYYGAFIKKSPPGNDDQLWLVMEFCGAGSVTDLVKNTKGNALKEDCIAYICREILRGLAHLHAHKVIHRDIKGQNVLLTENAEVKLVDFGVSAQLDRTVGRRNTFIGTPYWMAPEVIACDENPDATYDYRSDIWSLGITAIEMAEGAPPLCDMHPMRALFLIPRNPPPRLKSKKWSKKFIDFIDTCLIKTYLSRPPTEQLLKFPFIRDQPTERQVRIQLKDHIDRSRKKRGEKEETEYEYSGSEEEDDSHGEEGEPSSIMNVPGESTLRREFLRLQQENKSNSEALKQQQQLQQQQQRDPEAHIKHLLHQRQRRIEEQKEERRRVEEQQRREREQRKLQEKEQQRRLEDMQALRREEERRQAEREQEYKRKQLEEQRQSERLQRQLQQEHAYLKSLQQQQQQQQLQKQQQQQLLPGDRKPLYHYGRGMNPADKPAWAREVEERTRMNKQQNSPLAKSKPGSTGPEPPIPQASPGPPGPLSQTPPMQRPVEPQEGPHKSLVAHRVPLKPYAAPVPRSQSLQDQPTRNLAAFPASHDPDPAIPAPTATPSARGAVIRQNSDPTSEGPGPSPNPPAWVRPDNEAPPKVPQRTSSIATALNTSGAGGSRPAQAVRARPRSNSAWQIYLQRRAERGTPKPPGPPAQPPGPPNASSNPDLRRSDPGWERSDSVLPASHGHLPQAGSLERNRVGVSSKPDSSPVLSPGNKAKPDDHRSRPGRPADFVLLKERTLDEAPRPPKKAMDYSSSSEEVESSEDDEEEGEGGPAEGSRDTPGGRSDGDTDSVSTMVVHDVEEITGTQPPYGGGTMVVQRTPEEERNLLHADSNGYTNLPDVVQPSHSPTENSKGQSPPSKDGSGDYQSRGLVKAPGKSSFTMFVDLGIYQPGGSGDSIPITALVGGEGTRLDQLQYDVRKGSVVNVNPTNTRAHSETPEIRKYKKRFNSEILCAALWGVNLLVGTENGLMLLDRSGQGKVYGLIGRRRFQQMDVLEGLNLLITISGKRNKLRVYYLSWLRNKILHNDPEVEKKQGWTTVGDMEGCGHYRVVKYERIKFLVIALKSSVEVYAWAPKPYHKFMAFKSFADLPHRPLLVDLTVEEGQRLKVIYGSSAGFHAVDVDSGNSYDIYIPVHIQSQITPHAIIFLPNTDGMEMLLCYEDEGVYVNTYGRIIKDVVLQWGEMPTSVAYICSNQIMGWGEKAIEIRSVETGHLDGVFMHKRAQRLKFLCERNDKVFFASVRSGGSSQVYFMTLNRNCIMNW
T3 sequence (P35968 20-1356): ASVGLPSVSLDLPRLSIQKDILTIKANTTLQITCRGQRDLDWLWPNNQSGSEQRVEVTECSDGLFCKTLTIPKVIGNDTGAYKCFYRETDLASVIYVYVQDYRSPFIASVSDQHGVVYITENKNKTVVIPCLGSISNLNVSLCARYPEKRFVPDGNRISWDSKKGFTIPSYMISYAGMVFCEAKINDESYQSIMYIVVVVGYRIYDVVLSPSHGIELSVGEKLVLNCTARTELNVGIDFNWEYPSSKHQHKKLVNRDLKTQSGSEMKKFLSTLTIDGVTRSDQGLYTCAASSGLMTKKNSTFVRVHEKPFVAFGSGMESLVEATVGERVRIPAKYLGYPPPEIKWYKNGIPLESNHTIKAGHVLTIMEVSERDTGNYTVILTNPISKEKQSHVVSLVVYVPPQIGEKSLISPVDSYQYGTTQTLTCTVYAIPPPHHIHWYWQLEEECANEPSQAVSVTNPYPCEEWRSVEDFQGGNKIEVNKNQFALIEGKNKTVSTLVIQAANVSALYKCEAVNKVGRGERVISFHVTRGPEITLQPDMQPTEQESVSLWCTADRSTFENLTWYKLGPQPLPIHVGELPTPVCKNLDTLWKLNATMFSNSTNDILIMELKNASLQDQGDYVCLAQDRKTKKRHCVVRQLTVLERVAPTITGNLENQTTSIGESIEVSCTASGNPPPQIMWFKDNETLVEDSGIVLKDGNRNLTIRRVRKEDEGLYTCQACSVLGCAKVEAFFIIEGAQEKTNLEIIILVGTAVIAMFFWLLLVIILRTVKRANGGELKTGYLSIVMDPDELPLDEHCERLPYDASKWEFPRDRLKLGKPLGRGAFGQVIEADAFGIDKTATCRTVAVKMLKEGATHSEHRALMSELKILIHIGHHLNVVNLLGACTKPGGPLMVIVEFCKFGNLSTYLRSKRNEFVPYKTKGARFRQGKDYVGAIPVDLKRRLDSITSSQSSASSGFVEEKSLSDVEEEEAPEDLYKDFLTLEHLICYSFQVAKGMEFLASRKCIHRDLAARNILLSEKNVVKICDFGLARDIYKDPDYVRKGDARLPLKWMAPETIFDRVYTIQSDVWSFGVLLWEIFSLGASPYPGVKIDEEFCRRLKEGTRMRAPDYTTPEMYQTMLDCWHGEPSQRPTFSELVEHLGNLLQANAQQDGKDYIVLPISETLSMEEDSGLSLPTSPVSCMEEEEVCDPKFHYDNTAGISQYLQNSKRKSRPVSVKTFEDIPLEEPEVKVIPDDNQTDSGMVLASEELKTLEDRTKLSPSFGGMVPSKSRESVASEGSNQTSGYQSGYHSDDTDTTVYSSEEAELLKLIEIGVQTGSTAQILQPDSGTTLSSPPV

| remaining binding at 10 µM (KinomeScan kinase panel [4]; RPS6KA3(Kin.Dom.1)) [%] | remaining binding at 10 µM (KinomeScan kinase panel [7]; STK36, 10 µM) [%] | Compound | remaining binding at 10 µM (KinomeScan kinase panel [1]) [%] | score (%) (KinomeScan kinase panel [2]) | remaining binding at 10 µM (KinomeScan kinase panel [3]) [%] | remaining binding at 10 µM (KinomeScan kinase panel [4]; kinase RSK2(Kin.Dom.1-N-terminal)) [%] | remaining binding at 10 µM (KinomeScan kinase panel [5]) [%] | remaining binding at 10 µM (KinomeScan kinase panel [6]) [%] | remaining binding at 10 µM (KinomeScan kinase panel [7]; kinase STK36, 10 µM) [%] | remaining binding at 10 µM (KinomeScan kinase panel [4]; kinase RPS6KA3(Kin.Dom.1-N-terminal)) [%] |
| --- | --- | --- | --- | --- | --- | --- | --- | --- | --- | --- |
| – | – | CCN1CCN(Cc2ccc(NC(=O)c3ccc(C)c(C#Cc4cccnc4)c3)cc2C(F)(F)F)CC1 [XMD15-44] | > 30 | 0.85% | 0.25 | 16 | 0.25 | 2.5 | 0.4 | – |
| > 30 | 0.05 | CCN1CCN(Cc2ccc(NC(=O)c3ccc(C)c(/C=C/c4cnc5[nH]ccc5c4Cl)c3)cc2C(F)(F)F)CC1 [HG-6-63-01, (E)-3-(2-(4-chloro-1H-pyrrolo[2,3-b]pyridin-5-yl)vinyl)-N-(4-((4-ethylpiperazin-1-yl)methyl)-3-(trifluoromethyl)phenyl)-4-methylbenzamide] | 1.6 | nb (Hits values higher than 30% were considered negative (no binding: nb)) | 0.35 | – | 11 | 4.2 | – | – |
| – | – | CCN1CCN(Cc2ccc(NC(=O)c3ccc(C)c(NC(=O)c4cncc(-c5cccs5)c4)c3)cc2C(F)(F)F)CC1 [ALW-II-41-27] | 31 | nb (Hits values higher than 30% were considered negative (no binding: nb)) | 1.8 | – | 0.3 | 0.65 | 0.2 | > 30 |
